Measured values published in article PMC7339578, “Multiple circulating alkaloids and saponins from intravenous Kang-Ai injection inhibit human cytochrome P450 and UDP-glucuronosyltransferase isozymes: potential drug–drug interactions” (Chinese Medicine, 2020).
pIC50: −log10 of the molar value. Several values for one entry are separate records, joined by “and”; a condition that tells them apart may be missing. Identical values can stand only once. Like-named read-outs stand apart in the source and are kept apart here.

Columns and labels:
CYP2A6 = target: T1, CYP2A6 (Homo sapiens, UniProt P11509); experiment: Inhibition of recombinant CYP2A6 (probe coumarin); format: in vitro ADME
T1 sequence (P11509 1-494): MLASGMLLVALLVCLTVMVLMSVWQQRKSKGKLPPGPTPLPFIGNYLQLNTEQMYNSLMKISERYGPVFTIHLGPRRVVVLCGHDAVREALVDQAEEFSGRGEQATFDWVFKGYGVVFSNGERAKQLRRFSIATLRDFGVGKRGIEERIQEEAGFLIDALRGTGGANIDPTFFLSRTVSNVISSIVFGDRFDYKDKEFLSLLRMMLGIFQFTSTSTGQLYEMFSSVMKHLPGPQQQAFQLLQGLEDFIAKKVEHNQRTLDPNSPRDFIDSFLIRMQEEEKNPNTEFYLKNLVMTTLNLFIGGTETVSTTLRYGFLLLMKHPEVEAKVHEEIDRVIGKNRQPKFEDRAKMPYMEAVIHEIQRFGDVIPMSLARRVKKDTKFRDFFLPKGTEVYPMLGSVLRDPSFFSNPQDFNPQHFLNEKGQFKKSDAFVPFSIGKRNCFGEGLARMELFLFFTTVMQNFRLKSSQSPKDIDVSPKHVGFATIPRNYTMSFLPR
Experimental: (§1) In this study, phenacetin (100 μM), coumarin (100 μM), bupropion (100 μM), paclitaxel (60 μM), tolbutamide (200 μM), mephenytoin (100 μM), chlorzoxazone (200 μM) and nifedipine (40 μM) have been used as the probe substrates for CYP1A2, 2A6, 2B6, 2C8, 2C9, 2C19, 2E1 and 3A4, respectively.

[1] = Stability tests of analytes in rat plasma QC samples; format: in vitro ADME
Experimental: […] The dilution integrity was investigated by analyzing six replicate samples with each analyte, and each analyte were diluted 10-fold with blank rat matrix. Furthermore, the diluted samples were analyzed using freshly prepared calibration curve to calculate RE and RSD, which should be no more than ± 15% as criterion.

CYP3A4 = CYP3A4 (Homo sapiens, UniProt P08684); experiment: Inhibition of recombinant CYP3A4 (probe nifedipine); format: in vitro ADME
Sequence of CYP3A4 (P08684 whole entry): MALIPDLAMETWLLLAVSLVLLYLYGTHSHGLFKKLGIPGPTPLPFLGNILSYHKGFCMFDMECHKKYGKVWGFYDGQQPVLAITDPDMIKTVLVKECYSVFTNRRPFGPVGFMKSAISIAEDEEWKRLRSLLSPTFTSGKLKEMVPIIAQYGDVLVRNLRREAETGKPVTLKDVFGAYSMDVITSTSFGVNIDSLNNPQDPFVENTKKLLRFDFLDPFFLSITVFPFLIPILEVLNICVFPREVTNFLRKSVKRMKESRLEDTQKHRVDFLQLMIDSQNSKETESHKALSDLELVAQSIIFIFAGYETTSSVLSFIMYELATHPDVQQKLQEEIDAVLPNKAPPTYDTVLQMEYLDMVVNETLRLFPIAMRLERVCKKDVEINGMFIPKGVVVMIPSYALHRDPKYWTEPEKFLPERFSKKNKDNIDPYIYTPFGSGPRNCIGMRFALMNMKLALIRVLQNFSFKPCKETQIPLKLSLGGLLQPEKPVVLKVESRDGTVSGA
Experimental: as §1

[2] = Urinary (renal) excretion in rats after a 30-min infusion of Kang-Ai injection; format: in vivo, Sprague–Dawley rats; conditions: for CL renal: male, Sprague-Dawley, rat
Procedure, shortened: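 Urine collected in metabolic cages at 0–4, 4–8, 8–12 h and bile at 0–3, 3–6, 6–9, 9–12 h after infusion start, weighed and frozen at −80 °C. Non-compartmental analysis; CLR and CLB as cumulative urinary or biliary amount divided by plasma AUC0-∞, fe-U and fe-B as cumulative amount/dose; mean ± SD (n = 3).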

UGT1A9 = target: T2, UGT1A9 (Homo sapiens, UniProt O60656); experiment: Inhibition of expressed UGT1A9 (probe propofol); format: in vitro ADME
T2 sequence (O60656 26-530): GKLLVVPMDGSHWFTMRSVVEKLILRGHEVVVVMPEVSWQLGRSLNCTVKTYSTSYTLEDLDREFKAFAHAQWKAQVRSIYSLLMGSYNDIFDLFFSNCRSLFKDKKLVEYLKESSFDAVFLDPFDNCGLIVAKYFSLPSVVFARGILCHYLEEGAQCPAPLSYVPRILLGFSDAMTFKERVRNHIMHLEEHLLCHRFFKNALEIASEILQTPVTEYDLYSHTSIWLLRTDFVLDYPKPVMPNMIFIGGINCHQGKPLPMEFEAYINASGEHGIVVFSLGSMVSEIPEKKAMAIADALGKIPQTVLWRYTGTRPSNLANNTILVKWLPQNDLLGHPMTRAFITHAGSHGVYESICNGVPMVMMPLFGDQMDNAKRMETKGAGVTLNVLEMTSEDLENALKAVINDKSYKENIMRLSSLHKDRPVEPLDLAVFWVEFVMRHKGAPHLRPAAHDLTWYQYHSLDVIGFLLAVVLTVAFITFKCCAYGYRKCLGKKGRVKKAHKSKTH
Experimental: After centrifugation (13,800g, 10 min), the supernatant (8 μL) was obtained for determination by UHPLC system.
Similarly, β-estradiol (60 μM), propofol (40 μM) and 4-MU (350 μM) were typically used as the substrates for UGT1A1, 1A9 and 2B7, respectively. After optimization of incubation conditions (Additional file 1: Fig. S2), the protein concentrations for UGT1A1, 1A9, and 2B7 were 0.125, 0.05, and 0.05 mg/mL, respectively.

[3] = rat plasma, nominal conc. 20 nM
[4] = rat plasma, nominal conc. 100 nM
[5] = rat plasma, nominal conc. 400 nM

O=C1CCC[C@@H]2[C@H]3CCCN4CCC[C@@H](CN12)[C@@H]34 [Compound A1, Matrine]
pIC50 (CYP2A6): < 4.00 | At -80 °C for 48 h, Mean±SD [1, 3]: 21.33 ± 1.64 nM | At -80 °C for 48 h, RE [1, 3]: 10.69% | Extracted samples at 8 °C for 18 h, Mean±SD [1, 3]: 21.75 ± 0.99 nM | Extracted samples at 8 °C for 18 h, RE [1, 3]: 13.23% | Short-term stability at room temperature for 6 h, Mean±SD [1, 3]: 20.84 ± 0.75 nM | Short-term stability at room temperature for 6 h, RE [1, 3]: 8.05% | Three freeze-thaw cycles (-80 °C ↔ 23 °C), Mean±SD [1, 3]: 20.11 ± 1.97 nM | Three freeze-thaw cycles (-80 °C ↔ 23 °C), RE [1, 3]: -9.75% | At -80 °C for 48 h, Mean±SD [1, 4]: 106.76 ± 6.22 nM | At -80 °C for 48 h, RE [1, 4]: 13.15% | Extracted samples at 8 °C for 18 h, Mean±SD [1, 4]: 95.18 ± 2.64 nM | Extracted samples at 8 °C for 18 h, RE [1, 4]: -7.17% | Short-term stability at room temperature for 6 h, Mean±SD [1, 4]: 100.30 ± 2.84 nM | Short-term stability at room temperature for 6 h, RE [1, 4]: 3.05% | Three freeze-thaw cycles (-80 °C ↔ 23 °C), Mean±SD [1, 4]: 104.44 ± 12.01 nM | Three freeze-thaw cycles (-80 °C ↔ 23 °C), RE [1, 4]: 14.16% | At -80 °C for 48 h, Mean±SD [1, 5]: 394.46 ± 17.47 nM | At -80 °C for 48 h, RE [1, 5]: -6.06% | Extracted samples at 8 °C for 18 h, Mean±SD [1, 5]: 402.13 ± 26.43 nM | Extracted samples at 8 °C for 18 h, RE [1, 5]: 7.87% | Short-term stability at room temperature for 6 h, Mean±SD [1, 5]: 420.24 ± 21.99 nM | Short-term stability at room temperature for 6 h, RE [1, 5]: 11.33% | Three freeze-thaw cycles (-80 °C ↔ 23 °C), Mean±SD [1, 5]: 415.19 ± 9.89 nM | Three freeze-thaw cycles (-80 °C ↔ 23 °C), RE [1, 5]: 5.94% | pIC50 (CYP3A4): < 4.00 | CL renal ([2]; urine and plasma, Kang-Ai injection 6 mL/kg iv, read-out: CLR (renal excretory clearance) (converted)): 0.015 mL/min | fe-U,0–12h (fraction of dose excreted into urine) ([2]; rat urine 0–12 h, Kang-Ai injection 6 mL/kg iv): 57.40% and 57.40 ± 4.88% | fraction of dose excreted unchanged via renal plus hepatobiliary excretion (sum of fe-U and fe-B) ([2]; rat urine + bile, 0–12 h, Kang-Ai injection 6 mL/kg iv): exceeded 90% | pIC50 (UGT1A9): < 4.00

O=C1CCC[C@@H]2[C@H]3CCC[N+]4([O-])CCC[C@@H](CN12)[C@@H]34 (stereo partly shown) [Compound A3, Oxymatrine]
pIC50 (CYP2A6): < 4.00 | Three freeze-thaw cycles (-80 °C ↔ 23 °C), Mean±SD ([1]; rat, 80 nM): 82.92 ± 3.13 nM | Three freeze-thaw cycles (-80 °C ↔ 23 °C), Mean±SD ([1]; rat, 400 nM): 406.54 ± 20.44 nM | Three freeze-thaw cycles (-80 °C ↔ 23 °C), Mean±SD ([1]; rat, 1600 nM): 1588.35 ± 117.83 nM | Short-term stability at room temperature for 6 h, Mean±SD ([1]; rat, 6 h, 80 nM): 81.69 ± 3.23 nM | Short-term stability at room temperature for 6 h, Mean±SD ([1]; rat, 6 h, 400 nM): 391.75 ± 44.05 nM | Short-term stability at room temperature for 6 h, Mean±SD ([1]; rat, 6 h, 1600 nM): 1629.42 ± 112.91 nM | Extracted samples at 8 °C for 18 h, Mean±SD ([1]; rat, 18 h, 80 nM): 76.52 ± 2.34 nM | Extracted samples at 8 °C for 18 h, Mean±SD ([1]; rat, 18 h, 400 nM): 410.83 ± 21.99 nM | Extracted samples at 8 °C for 18 h, Mean±SD ([1]; rat, 18 h, 1600 nM): 1553.29 ± 127.31 nM | At -80 °C for 48 h, Mean±SD ([1]; rat, 48 h, 80 nM): 83.89 ± 6.74 nM | At -80 °C for 48 h, Mean±SD ([1]; rat, 48 h, 400 nM): 422.79 ± 10.74 nM | At -80 °C for 48 h, Mean±SD ([1]; rat, 48 h, 1600 nM): 1578.58 ± 168.35 nM | IC50 (CYP3A4; IC50 towards CYP3A4, recombinant isozyme, mean ± SD of triplicate, unit not given (IC50 classes in μM)): > 100 µM | CL renal ([2]; in vivo, iv): 1.18 mL/min | IC50 (UGT1A9; IC50 towards UGT1A9, recombinant isozyme, mean ± SD of triplicate, unit not given (IC50 classes in μM)): > 100 µM
